From the supplement of paper PMC10307832

How the values were obtained:
Assay in all cases: relative viability (nuclei count vs DMSO), 5 days (fraction); higher = more cells survive
[1] = system: COR-L23
In short: (§1)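 Cells from lung cancer lines were seeded into 1536-well plates and, one day later, dosed by pin tool. Treatments were either a single drug or a fixed dose of an anchor drug with five library-drug doses (not always all listed) in √10 steps. After 5 days, nuclei were stained in a one-step fixation (final 0.05% Triton X-100, 1% formaldehyde, 1 ug/ml Hoechst) and counted on 4× images, and relative viability is the treated-to-vehicle nuclei ratio, as the median of duplicate plates.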

[2] = system: ChaGo-K-1
In short: as §1

[3] = system: EPLC-272H
In short: as §1

[4] = system: HCC-15
In short: as §1

[5] = system: HCC-366
In short: as §1

[6] = system: HCC-44
In short: as §1

[7] = system: HCC-827
In short: as §1

[8] = system: NCI-H1355
In short: as §1

[9] = system: NCI-H1734
In short: as §1

[10] = system: NCI-H1793
In short: as §1

[11] = system: NCI-H1944
In short: as §1

[12] = system: NCI-H2009
In short: as §1

[13] = system: NCI-H2023
In short: as §1

[14] = system: NCI-H2085
In short: as §1

[15] = system: NCI-H2228
In short: as §1

[16] = system: NCI-H2347
In short: as §1

[17] = system: NCI-H2405
In short: as §1

[18] = system: NCI-H3122
In short: as §1

[19] = system: PC-14
In short: as §1

[20] = system: SW 1573
In short: as §1

[21] = system: ABC-1
In short: as §1

[22] = system: LCLC-103H
In short: as §1

Cc1cn(-c2cc(NC(=O)c3ccc(C)c(Nc4nccc(-c5cccnc5)n4)c3)cc(C(F)(F)F)c2)cn1 [Nilotinib] + CC1(C)CCC(c2ccc(Cl)cc2)=C(CN2CCN(c3ccc(C(=O)NS(=O)(=O)c4ccc(N[C@H](CCN5CCOCC5)CSc5ccccc5)c(S(=O)(=O)C(F)(F)F)c4)cc3)CC2)C1 [Navitoclax] (partner 0.5 µM)
relative viability ([1]; first compound 0.001 µM): 0.835
relative viability ([1]; first compound 0.003162 µM): 1.17
relative viability ([1]; first compound 0.01 µM): 1.18
relative viability ([1]; first compound 0.03162 µM): 0.953
relative viability ([1]; first compound 0.1 µM): 0.864
relative viability ([2]; first compound 0.001 µM): 1.47
relative viability ([2]; first compound 0.003162 µM): 0.924
relative viability ([2]; first compound 0.01 µM): 1.06
relative viability ([2]; first compound 0.03162 µM): 0.754
relative viability ([2]; first compound 0.1 µM): 0.787
relative viability ([3]; first compound 0.001 µM): 1.1
relative viability ([3]; first compound 0.003162 µM): 1.32
relative viability ([3]; first compound 0.01 µM): 1.5
relative viability ([3]; first compound 0.03162 µM): 0.804
relative viability ([3]; first compound 0.1 µM): 1.28
relative viability ([4]; first compound 0.001 µM): 0.631
relative viability ([4]; first compound 0.003162 µM): 0.824
relative viability ([4]; first compound 0.01 µM): 0.716
relative viability ([4]; first compound 0.03162 µM): 0.511
relative viability ([4]; first compound 0.1 µM): 0.57
relative viability ([5]; first compound 0.001 µM): 1.07
relative viability ([5]; first compound 0.01 µM): 1.62
relative viability ([5]; first compound 0.03162 µM): 0.696
relative viability ([5]; first compound 0.1 µM): 0.744
relative viability ([6]; first compound 0.001 µM): 0.845
relative viability ([6]; first compound 0.003162 µM): 1.22
relative viability ([6]; first compound 0.01 µM): 1.39
relative viability ([6]; first compound 0.03162 µM): 0.844
relative viability ([6]; first compound 0.1 µM): 0.999
relative viability ([7]; first compound 0.001 µM): 1.02
relative viability ([7]; first compound 0.003162 µM): 1.08
relative viability ([7]; first compound 0.01 µM): 1.1
relative viability ([7]; first compound 0.1 µM): 1
relative viability ([8]; first compound 0.001 µM): 1
relative viability ([8]; first compound 0.003162 µM): 1.14
relative viability ([8]; first compound 0.01 µM): 1.12
relative viability ([8]; first compound 0.03162 µM): 0.928
relative viability ([8]; first compound 0.1 µM): 0.893
relative viability ([9]; first compound 0.001 µM): 0.704
relative viability ([9]; first compound 0.003162 µM): 1.03
relative viability ([9]; first compound 0.01 µM): 1.06
relative viability ([9]; first compound 0.03162 µM): 0.434
relative viability ([9]; first compound 0.1 µM): 0.543
relative viability ([10]; first compound 0.003162 µM): 0.452
relative viability ([10]; first compound 0.01 µM): 0.587
relative viability ([10]; first compound 0.03162 µM): 0.385
relative viability ([10]; first compound 0.1 µM): 0.275
relative viability ([11]; first compound 0.001 µM): 1.03
relative viability ([11]; first compound 0.003162 µM): 1.13
relative viability ([11]; first compound 0.01 µM): 1.22
relative viability ([11]; first compound 0.03162 µM): 1.12
relative viability ([11]; first compound 0.1 µM): 0.987
relative viability ([12]; first compound 0.001 µM): 1.09
relative viability ([12]; first compound 0.003162 µM): 1.19
relative viability ([12]; first compound 0.01 µM): 1.21
relative viability ([12]; first compound 0.03162 µM): 1.19
relative viability ([12]; first compound 0.1 µM): 1.23
relative viability ([13]; first compound 0.001 µM): 0.914
relative viability ([13]; first compound 0.003162 µM): 1.13
relative viability ([13]; first compound 0.01 µM): 1.32
relative viability ([13]; first compound 0.03162 µM): 1.02
relative viability ([13]; first compound 0.1 µM): 1.02
relative viability ([14]; first compound 0.001 µM): 1.12
relative viability ([14]; first compound 0.003162 µM): 1.19
relative viability ([14]; first compound 0.01 µM): 1.38
relative viability ([14]; first compound 0.03162 µM): 0.957
relative viability ([14]; first compound 0.1 µM): 1.03
relative viability ([15]; first compound 0.001 µM): 0.662
relative viability ([15]; first compound 0.003162 µM): 1.1
relative viability ([15]; first compound 0.01 µM): 0.927
relative viability ([15]; first compound 0.03162 µM): 0.826
relative viability ([15]; first compound 0.1 µM): 0.763
relative viability ([16]; first compound 0.001 µM): 0.81
relative viability ([16]; first compound 0.003162 µM): 0.959
relative viability ([16]; first compound 0.01 µM): 1.05
relative viability ([16]; first compound 0.03162 µM): 0.662
relative viability ([16]; first compound 0.1 µM): 0.695
relative viability ([17]; first compound 0.001 µM): 0.733
relative viability ([17]; first compound 0.003162 µM): 0.761
relative viability ([17]; first compound 0.01 µM): 0.764
relative viability ([17]; first compound 0.03162 µM): 0.596
relative viability ([17]; first compound 0.1 µM): 0.439
relative viability ([18]; first compound 0.001 µM): 1.09
relative viability ([18]; first compound 0.003162 µM): 1.12
relative viability ([18]; first compound 0.01 µM): 1.09
relative viability ([18]; first compound 0.1 µM): 0.831
relative viability ([19]; first compound 0.003162 µM): 1.09
relative viability ([19]; first compound 0.01 µM): 1.19
relative viability ([19]; first compound 0.03162 µM): 0.882
relative viability ([19]; first compound 0.1 µM): 1.07
relative viability ([20]; first compound 0.001 µM): 1.05
relative viability ([20]; first compound 0.003162 µM): 1.23
relative viability ([20]; first compound 0.01 µM): 1.14
relative viability ([20]; first compound 0.03162 µM): 0.792
relative viability ([20]; first compound 0.1 µM): 1.01

Nc1cccc2c1CN(C1CCC(=O)NC1=O)C2=O (configuration not stated) [Lenalidomide] + Cc1nc(NC(=O)N2CCC[C@H]2C(N)=O)sc1-c1ccnc(C(C)(C)C(F)(F)F)c1 [Alpelisib] (partner 2 µM)
relative viability ([21]; first compound 0.253 µM): 0.948
relative viability ([21]; first compound 0.8 µM): 0.996
relative viability ([21]; first compound 2.53 µM): 1.02
relative viability ([21]; first compound 8 µM): 1.01
relative viability ([1]; first compound 0.253 µM): 0.798
relative viability ([1]; first compound 0.8 µM): 0.794
relative viability ([1]; first compound 2.53 µM): 0.784
relative viability ([1]; first compound 8 µM): 0.875
relative viability ([3]; first compound 0.253 µM): 0.975
relative viability ([3]; first compound 2.53 µM): 1.03
relative viability ([3]; first compound 8 µM): 0.684
relative viability ([4]; first compound 0.253 µM): 1.02
relative viability ([4]; first compound 2.53 µM): 0.886
relative viability ([4]; first compound 8 µM): 0.865
relative viability ([5]; first compound 0.253 µM): 0.402
relative viability ([5]; first compound 0.8 µM): 0.336
relative viability ([5]; first compound 2.53 µM): 0.549
relative viability ([5]; first compound 8 µM): 0.324
relative viability ([6]; first compound 0.253 µM): 0.865
relative viability ([6]; first compound 0.8 µM): 0.594
relative viability ([6]; first compound 2.53 µM): 0.821
relative viability ([6]; first compound 8 µM): 0.663
relative viability ([7]; first compound 0.253 µM): 0.978
relative viability ([7]; first compound 0.8 µM): 1.06
relative viability ([7]; first compound 2.53 µM): 0.96
relative viability ([7]; first compound 8 µM): 0.846
relative viability ([22]; first compound 0.253 µM): 0.993
relative viability ([22]; first compound 0.8 µM): 1
relative viability ([22]; first compound 2.53 µM): 0.862
relative viability ([22]; first compound 8 µM): 0.674
relative viability ([8]; first compound 0.253 µM): 0.806
relative viability ([8]; first compound 0.8 µM): 0.645
relative viability ([8]; first compound 2.53 µM): 0.848
relative viability ([8]; first compound 8 µM): 0.454
relative viability ([9]; first compound 0.253 µM): 0.669
relative viability ([9]; first compound 0.8 µM): 0.757
relative viability ([9]; first compound 2.53 µM): 0.746
relative viability ([9]; first compound 8 µM): 0.608
relative viability ([10]; first compound 0.253 µM): 0.858
relative viability ([10]; first compound 0.8 µM): 0.828
relative viability ([10]; first compound 2.53 µM): 0.673
relative viability ([10]; first compound 8 µM): 0.57
relative viability ([11]; first compound 0.253 µM): 0.885
relative viability ([11]; first compound 0.8 µM): 0.934
relative viability ([11]; first compound 2.53 µM): 0.897
relative viability ([11]; first compound 8 µM): 0.654
relative viability ([12]; first compound 0.253 µM): 1.1
relative viability ([12]; first compound 0.8 µM): 1.12
relative viability ([12]; first compound 2.53 µM): 1.19
relative viability ([12]; first compound 8 µM): 1.21
relative viability ([13]; first compound 0.253 µM): 0.594
relative viability ([13]; first compound 0.8 µM): 0.745
relative viability ([13]; first compound 2.53 µM): 0.697
relative viability ([13]; first compound 8 µM): 0.61
relative viability ([14]; first compound 0.253 µM): 1.01
relative viability ([14]; first compound 0.8 µM): 0.997
relative viability ([14]; first compound 2.53 µM): 0.952
relative viability ([14]; first compound 8 µM): 0.972
relative viability ([15]; first compound 0.253 µM): 0.851
relative viability ([15]; first compound 0.8 µM): 0.736
relative viability ([15]; first compound 2.53 µM): 0.785
relative viability ([15]; first compound 8 µM): 0.817
relative viability ([16]; first compound 0.253 µM): 1.06
relative viability ([16]; first compound 0.8 µM): 0.957
relative viability ([16]; first compound 2.53 µM): 0.964
relative viability ([16]; first compound 8 µM): 0.875
relative viability ([17]; first compound 0.253 µM): 0.672
relative viability ([17]; first compound 0.8 µM): 0.83
relative viability ([17]; first compound 2.53 µM): 0.843
relative viability ([17]; first compound 8 µM): 0.563
relative viability ([18]; first compound 0.253 µM): 0.779
relative viability ([18]; first compound 0.8 µM): 0.961
relative viability ([18]; first compound 2.53 µM): 0.797
relative viability ([18]; first compound 8 µM): 0.659
relative viability ([19]; first compound 0.253 µM): 0.899
relative viability ([19]; first compound 0.8 µM): 0.93
relative viability ([19]; first compound 2.53 µM): 0.982
relative viability ([19]; first compound 8 µM): 0.9
relative viability ([20]; first compound 0.253 µM): 0.775
relative viability ([20]; first compound 0.8 µM): 0.921
relative viability ([20]; first compound 2.53 µM): 1.01
relative viability ([20]; first compound 8 µM): 0.696
